Data on 43 compounds can be found in patent US8076324B2, “Di(hetero)arylcyclohexane derivatives, their preparation, their use and pharmaceutical compositions comprising them” (Sanofi-Aventis, priority 2007, dated 2011).

In general, IC50 refers to the midpoint of a concentration-inhibition curve.

The target in this assay is T1, myocardial ATP-sensitive potassium channel (SUR2A/Kir6.2) (UniProt Q61743+Q63563).
T1 construct: expressed in transfected cells
Kind of assay: Rubidium efflux test on HEK293 cells transfected with SUR2A and Kir6.2 (myocardial action). Type of assay: cell-based, SUR2A from the rat, Kir6.2 from the mouse. The note with it: HEK293 cells transfected with SUR2A/Kir6.2; KATP channels opened by rilmakalim; 25 min incubation; read-out: IC50 values for the inhibition of the rubidium efflux. The method, then:
1) Action on the SUR2A/Kir6.2 potassium channel (myocardial action) The action of the compounds on the ion transport through the myocardial ATP-sensitive potassium channel (SUR2A/Kir6.2) was determined in the rubidium efflux test system described below on human embryonic kidney cells HEK293 which were transfected with the components SUR2A and Kir6.2 (cf. Weyermann et al., Naunyn-Schmiedeberg's Arch. Pharmacol. 369, 374-381 (2004)).
The HEK293 cells were cultured at 37° C. in a humidified air atmosphere with 7% carbon dioxide in minimal essential medium with Earle's salts and L-glutamine (MEM, Gibco), which was supplemented with 10% fetal calf serum and zeozin (0.36 mg/ml) and geneticin (0.75 mg/ml). The transfection of the cells and the preparation of a cell line with stable expression of Kir6.2 from the mouse (accession number AF037313) and SUR2A from the rat (accession number D83598/L40624) were carried out as described in Giblin et al., J. Biol. Chem. 274, 22652-22659 (1999).
60 000 transfected cells per well were inoculated into a poly-D-lysine-coated 96-well microtiter plate (Greiner #650 201). After incubation for 24 h at 37° C., the cells were washed three times with buffer 1 (150 mM NaCl, 2 mM CaCl2, 0.8 mM NaH2PO4, 1 mM MgCl2, 5 mM glucose, 25 mM HEPES, pH=7.4). Subsequently, the buffer solution was replaced by 100 μl of rubidium loading buffer (buffer 1 with 5.4 mM RbCl) and the cells were incubated for a further 3 h at 37° C. The rubidium loading buffer was then removed by washing the cells three times with 200 μl each of potassium chloride wash buffer (buffer 1 with 5.4 mM KCl). After addition of the test substances (70 μl; dissolved in potassium chloride wash buffer with addition of DMSO), the KATP channels of the cells were opened by addition of 70 μl of rilmakalim (2 μM) (cf. Krause et al., Pflügers Arch. 429, 625-635 (1995)) and the cells were incubated at 37° C. for 25 min. Subsequently, the cell supernatants were transferred to a new 96-well microtiter plate and the cells were lyzed by addition of 200 μl of lysis buffer (buffer 1 with 1% Triton X-100). The concentrations of Rb^+ in the cell supernatant and in the cell lyzate were measured by means of atomic absorption spectroscopy using an Al 1200 apparatus (Aurora Instruments Ltd.).
The Rb^+ efflux rate was calculated as [Rb^+SN]/[Rb^+total], wherein [Rb^+SN] is the amount of Rb^+ in the cell supernatant and [Rb^+total] is the sum of the amounts of Rb^+ in the cell supernatant and cell lyzate. IC50 values for the inhibition of the rubidium efflux were calculated with the aid of the Hill equation.

The structures appear in SMILES notation.

T1 sequence (Q63563 whole entry): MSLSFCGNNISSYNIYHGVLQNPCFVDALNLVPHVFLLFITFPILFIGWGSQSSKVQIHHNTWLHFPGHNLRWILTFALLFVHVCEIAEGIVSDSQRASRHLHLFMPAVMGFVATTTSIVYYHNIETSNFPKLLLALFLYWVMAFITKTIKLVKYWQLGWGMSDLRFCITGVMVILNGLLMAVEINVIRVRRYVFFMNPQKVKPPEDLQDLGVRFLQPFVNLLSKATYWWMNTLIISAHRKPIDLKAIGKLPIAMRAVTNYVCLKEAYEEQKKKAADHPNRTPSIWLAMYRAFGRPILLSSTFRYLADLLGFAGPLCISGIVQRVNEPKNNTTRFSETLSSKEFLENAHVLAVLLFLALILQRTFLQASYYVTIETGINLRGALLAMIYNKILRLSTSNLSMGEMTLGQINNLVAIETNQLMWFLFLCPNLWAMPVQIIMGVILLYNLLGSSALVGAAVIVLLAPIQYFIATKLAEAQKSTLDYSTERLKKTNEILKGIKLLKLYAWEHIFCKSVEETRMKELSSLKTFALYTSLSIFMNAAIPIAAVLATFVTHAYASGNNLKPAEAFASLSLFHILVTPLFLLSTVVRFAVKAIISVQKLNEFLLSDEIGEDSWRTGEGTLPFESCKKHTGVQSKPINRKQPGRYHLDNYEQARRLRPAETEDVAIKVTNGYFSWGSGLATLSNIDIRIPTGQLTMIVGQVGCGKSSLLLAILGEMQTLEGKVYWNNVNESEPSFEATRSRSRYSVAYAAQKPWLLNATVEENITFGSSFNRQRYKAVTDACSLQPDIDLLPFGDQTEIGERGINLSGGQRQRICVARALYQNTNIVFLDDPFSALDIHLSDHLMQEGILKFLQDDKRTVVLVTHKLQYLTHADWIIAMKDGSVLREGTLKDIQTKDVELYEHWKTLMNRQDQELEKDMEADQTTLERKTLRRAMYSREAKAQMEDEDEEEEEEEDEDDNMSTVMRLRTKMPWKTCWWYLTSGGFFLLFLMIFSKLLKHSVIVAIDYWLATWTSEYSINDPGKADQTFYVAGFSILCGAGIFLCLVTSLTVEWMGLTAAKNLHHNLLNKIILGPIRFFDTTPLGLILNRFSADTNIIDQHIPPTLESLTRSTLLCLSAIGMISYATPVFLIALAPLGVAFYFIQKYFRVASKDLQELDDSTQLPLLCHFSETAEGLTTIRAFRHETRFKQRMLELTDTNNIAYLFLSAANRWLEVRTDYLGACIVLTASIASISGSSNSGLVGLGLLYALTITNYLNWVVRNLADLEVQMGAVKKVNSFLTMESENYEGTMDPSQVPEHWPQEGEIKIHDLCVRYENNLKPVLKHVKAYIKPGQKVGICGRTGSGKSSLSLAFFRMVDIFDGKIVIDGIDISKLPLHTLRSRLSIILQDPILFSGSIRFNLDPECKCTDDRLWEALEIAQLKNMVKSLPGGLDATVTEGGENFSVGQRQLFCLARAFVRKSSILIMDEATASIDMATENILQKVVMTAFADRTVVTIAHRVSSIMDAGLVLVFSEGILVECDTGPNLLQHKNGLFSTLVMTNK
T1 sequence (Q61743 whole entry): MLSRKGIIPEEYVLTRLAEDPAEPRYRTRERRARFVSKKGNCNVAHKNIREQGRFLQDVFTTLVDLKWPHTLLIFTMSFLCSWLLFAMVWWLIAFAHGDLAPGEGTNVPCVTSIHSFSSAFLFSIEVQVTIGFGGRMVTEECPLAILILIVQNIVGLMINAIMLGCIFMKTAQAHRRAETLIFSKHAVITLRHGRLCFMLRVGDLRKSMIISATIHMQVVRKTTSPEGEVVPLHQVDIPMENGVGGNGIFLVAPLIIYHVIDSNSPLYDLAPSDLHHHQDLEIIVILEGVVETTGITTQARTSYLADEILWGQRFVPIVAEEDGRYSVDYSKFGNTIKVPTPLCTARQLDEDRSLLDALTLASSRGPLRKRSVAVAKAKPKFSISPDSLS

In the case of `Cc1nc([C@]2(OCC3CC3)CC[C@](C(=O)O)(c3ccc(S(C)(=O)=O)cc3)CC2)n(CC2CC2)c1Cl` [Example 408], the 50% inhibitory concentration (IC50) was < 1000 nM.
On to `Cc1c(Br)nc([C@]2(Oc3ccccc3)CC[C@@](C(=O)O)(c3ccc(F)cc3)CC2)n1CC1CC1` [Example 404], for which the IC50 was < 1000 nM.
Regarding `O=C(O)C1(c2ccccc2)CCC(O)(c2cccc(C(F)(F)F)c2)CC1` (stereo not shown) [Example 102], the IC50 was < 1000 nM.
Then `CS(=O)(=O)c1ccc(F)cc1C1(OCC2CC2)CCC(C(=O)O)(c2ccc(F)cc2)CC1` (stereo not shown) [Example 258], with < 1000 nM; and `COC1(c2ccc(F)cc2)CCC(C(=O)O)(c2ccccc2F)CC1` (stereo not shown) [Example 235], with < 1000 nM; and `Cc1nc([C@]2(OCC3CC3)CC[C@](C(=O)O)(c3ccccc3)CC2)n(CC2CC2)c1C` [Example 377], with < 1000 nM.
On to `COC1(c2ccc(F)cc2)CCC(C(=O)O)(c2ccc(OC(F)(F)F)cc2)CC1` (stereo not shown) [Example 236], for which the 50% inhibitory concentration (IC50) is < 1000 nM.
As to `Cc1c(F)cc([C@]2(OCC3CC3)CC[C@](C(=O)O)(c3ccc(F)cc3)CC2)cc1S(=O)(=O)C(C)(C)C` [Example 304-2, Cis-4-Cyclopropylmethoxy-4-[3-fluoro-4-methyl-5-(2-methylpropane-2-sulfonyl)phenyl]-1-(4-fluorophenyl)cyclohexanecarboxylic Acid], the IC50 was < 1000 nM.
Consider `Cc1c(F)cc(S(C)(=O)=O)cc1[C@]1(OCC2CC2)CC[C@](C(=O)O)(c2ccccc2)CC1` [Example 480, Cis-4-Cyclopropylmethoxy-4-(3-fluoro-2-methyl-5-methanesulfonylphenyl)-1-phenylcyclohexanecarboxylic Acid], for which the IC50 is < 1000 nM.
The figure for `CC(C)CCO[C@]1(c2nccn2CC2CC2)CC[C@@](C(=O)O)(c2ccc(F)cc2)CC1` [Example 370] is < 1000 nM; for `CS(=O)(=O)c1cccc2nc([C@]3(OCC4CC4)CC[C@](C(=O)O)(c4ccccc4)CC3)n(CC3CC3)c12` [Example 455] it is < 1000 nM.
`COC1(c2cccc(F)c2F)CCC(C(=O)O)(c2ccccc2)CC1` (stereo not shown) [Example 120]: the IC50 was < 1000 nM.
The figure for `Cc1c(Cl)nc([C@]2(OCC3CC3)CC[C@](C(=O)O)(c3ccccc3)CC2)n1CC1CC1` [Example 383] is < 1000 nM.
For `COC1(c2ccc(SC)cc2)CCC(C(=O)O)(c2ccccc2)CC1` (stereo not shown) [Example 163, 4-Methoxy-4-(4-methylsulfanylphenyl)-1-phenylcyclohexanecarboxylic Acid], the IC50 was < 1000 nM.
Then `COC1(c2ccc(F)cc2)CCC(C(=O)O)(c2cccc(F)c2)CC1` (stereo not shown) [Example 234], with < 1000 nM.
Turning to `CSc1cc(F)ccc1C1(OCC2CC2)CCC(C(=O)O)(c2ccc(F)cc2)CC1` (stereo not shown) [Example 243], the IC50 is < 1000 nM.
In the case of `CCCn1c(Cl)c(C)nc1[C@]1(OCC2CC2)CC[C@](C(=O)O)(c2ccccc2)CC1` [Example 388], the concentration for half-maximal inhibition (IC50) was < 1000 nM.
The figure for `Cc1ccc(C2(O)CCC(C(=O)O)(c3ccccc3)CC2)cc1F` (stereo not shown) [Example 100] is < 1000 nM; for `O=C(O)[C@]1(c2ccc(F)cc2)CC[C@@](OCC2CC2)(c2nc3ccccc3n2CC2CC2)CC1` [Example 366] it is < 1000 nM.
In the case of `O=C(O)[C@]1(c2ccccc2)CC[C@@](OCC2CC2)(c2ncc(C(F)(F)F)n2CC2CC2)CC1` [Example 378], the IC50 was < 1000 nM.
For `C=C(CO[C@]1(c2nccn2CC2CC2)CC[C@@](C(=O)O)(c2ccccc2)CC1)c1ccccc1` [Example 495, Cis-4-(1-Cyclopropylmethyl-1H-imidazol-2-yl)-1-phenyl-4-(2-phenylallyloxy)cyclohexanecarboxylic Acid], the IC50 is < 1000 nM.
With `Cc1nc([C@]2(OCC3CC3)CC[C@](C(=O)O)(c3ccccc3)CC2)n(CC2CC2)c1Cl` [Example 382], the IC50 is < 1000 nM.
The figure for `O=C(O)[C@]1(c2ccccc2)CC[C@@](OCC2CC2)(c2nc(Cl)c(Cl)n2CC2CC2)CC1` [Example 387] is < 1000 nM.
With `O=C(O)[C@]1(c2ccc(F)cc2)CC[C@@](OCC2CC2)(c2ccc(F)cn2)CC1` [Example 263, Cis-4-Cyclopropylmethoxy-1-(4-fluorophenyl)-4-(5-fluoropyridin-2-yl)cyclohexanecarboxylic Acid], the 50% inhibitory concentration (IC50) was < 1000 nM.
As for `O=C(O)C1(c2ccccc2)CCC(O)(c2ccc(Br)cc2)CC1` (stereo not shown) [Example 105], the IC50 was < 1000 nM.
The figure for `Cc1nc([C@]2(OCC3CC3)CC[C@](C(=O)O)(c3ccccc3)CC2)n(C)c1Cl` [Example 391] is < 1000 nM; for `Cc1c(F)cc([C@]2(OCC3CC3)CC[C@](C(=O)O)(c3ccc(F)cc3)CC2)cc1S(=O)(=O)C(C)C` [Example 304-4, Cis-4-Cyclopropylmethoxy-4-[3-fluoro-4-methyl-5-(propane-2-sulfonyl)phenyl]-1-(4-fluorophenyl)cyclohexanecarboxylic Acid] it is < 1000 nM.
Take `O=C(O)C1(c2ccccc2)CCC(OCCC2CC2)(c2ccc(F)cc2)CC1` (stereo not shown) [Example 306, 4-(2-Cyclopropylethoxy)-4-(4-fluorophenyl)-1-phenylcyclohexanecarboxylic Acid]: the IC50 is < 1000 nM.
For the compound `COc1ccc(C2(OC)CCC(C(=O)O)(c3ccccc3)CC2)cc1F` (stereo not shown) [Example 131], the IC50 was < 1000 nM.
For the compound `CCOC1(c2ccccc2S(C)(=O)=O)CCC(C(=O)O)(c2ccccc2)CC1` (stereo not shown) [Example 173], the IC50 was < 1000 nM.
`O=C(O)[C@]1(c2ccccc2)CC[C@@](OCC2CC2)(c2nc(-c3ccccc3)cs2)CC1` [Example 333-1, Cis-4-Cyclopropylmethoxy-1-phenyl-4-(4-phenylthiazol-2-yl)cyclohexanecarboxylic Acid]: the IC50 is < 1000 nM.
The figure for `O=C(O)[C@]1(c2ccccc2)CC[C@](OCC2CC2)(c2nc(-c3ccccc3)cs2)CC1` [Example 333-2, Trans-4-Cyclopropylmethoxy-1-phenyl-4-(4-phenylthiazol-2-yl)cyclohexanecarboxylic Acid] is < 1000 nM; for `O=C(O)[C@]1(c2ccccc2)CC[C@@](OCC2CC2)(c2ccc(F)cn2)CC1` [Example 267, Cis-4-Cyclopropylmethoxy-4-(5-fluoropyridin-2-yl)-1-phenylcyclohexanecarboxylic Acid] it is < 1000 nM; for `CS(=O)(=O)c1cc(F)cc([C@]2(OCC3CC3)CC[C@](C(=O)O)(c3ccc(F)cc3)CC2)c1` [Example 301, Cis-4-Cyclopropylmethoxy-4-(3-fluoro-5-methanesulfonylphenyl)-1-(4-fluorophenyl)cyclohexanecarboxylic Acid] it is < 1000 nM.
Turning to `CS(=O)(=O)c1cc(F)ccc1C1(OCC2CC2)CCC(C(=O)O)(c2ccc(F)cc2)CC1` (stereo not shown) [Example 253], the concentration for half-maximal inhibition (IC50) is < 1000 nM.
The figure for `O=C(O)[C@]1(c2ccccc2)CC[C@](OCC2CC2)(c2nc(-c3ccccc3)n(CC3CC3)n2)CC1` [Example 270, Trans-4-Cyclopropylmethoxy-4-(1-cyclopropylmethyl-5-phenyl-1H-[1,2,4]triazol-3-yl)-1-phenylcyclohexanecarboxylic Acid] is < 1000 nM.
Take `O=C(O)C1(c2ccccc2)CCC(OCC2CC2)(c2cnc3ccccc3c2)CC1` (stereo not shown) [Example 152]: the IC50 is < 1000 nM.
For `O=C(O)[C@]1(c2ccccc2)CC[C@](OCC2CC2)(c2nc(C3CC3)n(CC3CC3)n2)CC1` [Example 296-2, Trans-4-(5-Cyclopropyl-1-cyclopropylmethyl-1H-[1,2,4]triazol-3-yl)-4-cyclopropylmethoxy-1-phenylcyclohexanecarboxylic Acid], the IC50 is < 1000 nM.
Take `COC1(c2ccccc2S(C)(=O)=O)CCC(C(=O)O)(c2ccccc2)CC1` (stereo not shown) [Example 172]: the IC50 was < 1000 nM.
Turning to `O=C(O)[C@]1(c2ccc(F)cc2)CC[C@@](OCC2CC2)(c2nccn2CC2CC2)CC1` [Example 364], the IC50 is < 1000 nM.
For the compound `CCCOC1(c2ccccc2S(C)(=O)=O)CCC(C(=O)O)(c2ccccc2)CC1` (stereo not shown) [Example 174], the IC50 is < 1000 nM.
Consider `O=C(O)[C@]1(c2ccccc2)CC[C@](Oc2ccccc2)(c2nc(-c3ccccc3)nn2CC2CC2)CC1` [Example 466], for which the IC50 is < 1000 nM.
Turning to `COC1(c2ccc(F)cc2)CCC(C(=O)O)(c2ccc(C)cc2)CC1` (stereo not shown) [Example 239], the concentration for half-maximal inhibition (IC50) is < 1000 nM.
